Experimental data published in patent US20240228501A1, “IMIDAZOLE-CONTAINING CONDENSED RING DERIVATIVE, PREPARATION METHOD THEREFOR, AND APPLICATION THEREOF IN MEDICINE” (CHANGCHUN GENESCIENCE PHARMACEUTICAL CO., LTD., priority 2021, published 2024).

Biological target: T1, human NK-3 receptor (Homo sapiens, UniProt P29371)
T1 construct: expressed in transfected cells; host or cells: HEK293
T1 sequence (P29371 1-465): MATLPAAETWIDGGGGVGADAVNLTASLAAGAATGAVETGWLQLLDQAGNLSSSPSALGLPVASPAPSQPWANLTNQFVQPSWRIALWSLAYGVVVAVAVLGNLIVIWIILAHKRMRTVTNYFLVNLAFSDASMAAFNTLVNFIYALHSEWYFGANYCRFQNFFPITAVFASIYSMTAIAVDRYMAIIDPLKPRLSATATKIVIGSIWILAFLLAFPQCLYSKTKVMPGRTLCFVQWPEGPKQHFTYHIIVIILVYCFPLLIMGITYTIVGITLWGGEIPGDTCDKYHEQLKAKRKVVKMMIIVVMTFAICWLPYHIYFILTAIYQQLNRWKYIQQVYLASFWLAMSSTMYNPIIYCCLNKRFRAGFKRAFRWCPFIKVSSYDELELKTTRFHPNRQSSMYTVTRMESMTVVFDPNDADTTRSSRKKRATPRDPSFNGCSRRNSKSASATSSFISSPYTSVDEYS
Test: Antagonistic activity on human NK-3 receptor in human NK-3R/HEK293 stably transfected cells (Fluo-4, FLIPR, Neurokinin B as agonist)
Type: cell-based
Conditions: human NK-3R/HEK293 cells
Procedure: Test Example 1: Determination of Activity of Compounds of the Present Invention on Human NK-3 Receptor
This method is used to determine antagonistic effects of the compounds of the present invention on the activity of human NK-3 receptor proteins expressed in cell lines stably transfected with human NK-3R/HEK293.
2.1 The cell lines stably transfected with human NK-3R/HEK293 were inoculated in a 384-well cell culture plate at a inoculation density of 12,000 cells/well/25 μL, and cultured at 37° C. and 5% CO2 overnight;
2.2 20× Component A was frozen and thawed to room temperature, diluted 2× with Assay Buffer to working concentration, and kept at room temperature for later use;
2.3 The cell culture plate was equilibrated at room temperature for 10 min, the culture medium was removed, and 20 μL of Assay Buffer and 20 μL of 2× Component A […] were added, followed by centrifugation at 200 g at room temperature for 3-5 sec, and incubation at 37° C. for 2 h;
2.4 The compound was diluted 3 times with DMSO in 384 PP_DMSO plate, and then 240 nl/well of the compound was transferred into a working plate with Echo 550, centrifugated at 200 g at room temperature for 1 min; 40 μl of Assay Buffer was added into the working plate, centrifugated at 200 g at room temperature for 1 min, and then fully mixed in an oscillator at 2500 rpm for 20 min, and then centrifugated at 200 g at room temperature for 1 min for later use;
2.5 2.5 nM Neurokinin B TFA (6×) was prepared from Assay Buffer, 50 uL of which was transferred onto 3657 plate for later use;
2.6 The cell culture plate was taken out and left to stand at room temperature for 10 min, then […] the compound diluted in step 2.4 was added into corresponding wells, and the cell culture plate was left to stand at 25° C. for 30 min; and
2.7 10 μL of the compound diluted in step 2.5 was added into the corresponding experimental wells with FLIPR Tetra, and data was collected.
The antagonistic activity of the compounds of the present invention on the human NK-3 receptor was determined through the above experiments, to obtain inhibition curves of the compounds of the present invention and determine concentrations (IC50) of the corresponding compounds that inhibit 50% of the reference agonist.

| SMILES | IC50 |
| --- | --- |
| COCCc1nc(-c2nc(C)ns2)n2c1C(C)N(C(=O)c1ccc(F)cc1)CC2 (racemic) [Compound 204, rac-(R)-(4-fluorophenyl)(1-(2-methoxyethyl)-8-methyl-3-(3-methyl-1,2,4-thiadiazol-5-yl)-5,6-dihydroimidazo[1,5-a]pyrazin-7 (8H)-yl)methanone] | 109 nM |
| Cc1nsc(-c2nc(-c3ccncc3)c3n2CCN(C(=O)c2ccc(F)cc2)C3C)n1 (centres unmarked) [Compound 005, (4-fluorophenyl)(8-methyl-3-(3-methyl-1,2,4-thiadiazol-5-yl)-1-(pyridin-4-yl)-5,6-dihydroimidazo[1,5-a]pyrazin-7 (8H)-yl)methanone] | 64.6 nM |
| CC(=O)N(C)c1nc(-c2nc(C)ns2)n2c1C(C)N(C(=O)c1ccc(F)cc1)CC2 (centres unmarked) [Compound 010, N-(7-(4-fluorobenzoyl)-8-methyl-3-(3-methyl-1,2,4-thiadiazol-5-yl)-5,6,7,8-tetrahydroimidazo[1,5-a]pyrazin-1-yl)-N-methylacetamide] | 33.4 nM |
| Cc1nsc(-c2nc(-c3ccncc3)c3n2CCN(C(=O)c2ccc(F)cc2)[C@@H]3C)n1 [Compound 026, (R)-(4-fluorophenyl)(8-methyl-3-(3-methyl-1,2,4-thiadiazol-5-yl)-1-(pyridin-4-yl)-5,6-dihydroimidazo[1,5-a]pyrazin-7 (8H)-yl)methanone] | 35 nM |
| Cc1nsc(-c2nc(-c3ccncn3)c3n2CCN(C(=O)c2ccc(F)cc2)[C@@H]3C)n1 [Compound 027, (R)-(4-fluorophenyl)(8-methyl-3-(3-methyl-1,2,4-thiadiazol-5-yl)-1-(pyrimidin-4-yl)-5,6-dihydroimidazo[1,5-a]pyrazin-7 (8H)-yl)methanone] | 29.7 nM |
| Cc1nsc(-c2nc(-c3ccnnc3)c3n2CCN(C(=O)c2ccc(F)cc2)[C@@H]3C)n1 [Compound 028, (R)-(4-fluorophenyl)(8-methyl-3-(3-methyl-1,2,4-thiadiazol-5-yl)-1-(pyridazin-4-yl)-5,6-dihydroimidazo[1,5-a]pyrazin-7 (8H)-yl)methanone] | 56.3 nM |
| Cc1nsc(-c2nc(N3CCOCC3)c3n2CCN(C(=O)c2ccc(F)cc2)[C@@H]3C)n1 [Compound 033, (R)-(4-fluorophenyl)(8-methyl-3-(3-methyl-1,2,4-thiadiazol-5-yl)-1-morpholino-5,6-dihydroimidazo[1,5-a]pyrazin-7 (8H)-yl)methanone] | 50.6 nM |
| Cc1nsc(-c2nc(NS(C)(=O)=O)c3n2CCN(C(=O)c2ccc(F)cc2)[C@@H]3C)n1 [Compound 040, (R)—N-(7-(4-fluorobenzoyl)-8-methyl-3-(3-methyl-1,2,4-thiadiazol-5-yl)-5,6,7,8-tetrahydroimidazo[1,5-a]pyrazin-1-yl)methanesulfonamide] | 51.7 nM |
| Cc1cc(-c2nc(-c3nc(C)ns3)n3c2[C@@H](C)N(C(=O)c2ccc(F)cc2)CC3)ccn1 [Compound 043, (R)-(4-fluorophenyl)(8-methyl-3-(3-methyl-1,2,4-thiadiazol-5-yl)-1-(2-methylpyridin-4-yl)-5,6-dihydroimidazo[1,5-a]pyrazin-7 (8H)-yl)methanone] | 29.6 nM |
| Cc1nsc(-c2nc(-c3ccncc3F)c3n2CCN(C(=O)c2ccc(F)cc2)[C@@H]3C)n1 [Compound 046, (R)-(4-fluorophenyl)(1-(3-fluoropyridin-4-yl)-8-methyl-3-(3-methyl-1,2,4-thiadiazol-5-yl)-5,6-dihydroimidazo[1,5-a]pyrazin-7 (8H)-yl)methanone] | 7.02 nM |
| Cc1nsc(-c2nc(-c3cc(F)nc(F)c3)c3n2CCN(C(=O)c2ccc(F)cc2)[C@@H]3C)n1 [Compound 053, (R)-(1-(2,6-difluoropyridin-4-yl)-8-methyl-3-(3-methyl-1,2,4-thiadiazol-5-yl)-5,6-dihydroimidazo[1,5-a]pyrazin-7 (8H)-yl)(4-fluorophenyl)methanone] | 20.2 nM |
| CC(=O)N(C)c1nc(-c2nc(C)ns2)n2c1[C@@H](C)N(C(=O)c1ccc(F)cc1)CC2 [Compound 060, (R)—N-(7-(4-fluorobenzoyl)-8-methyl-3-(3-methyl-1,2,4-thiadiazol-5-yl)-5,6,7,8-tetrahydroimidazo[1,5-a]pyrazin-1-yl)-N-methylacetamide] | 26.9 nM |
| Cc1nsc(-c2nc(-c3c(F)cccc3F)c3n2CCN(C(=O)c2ccc(F)cc2)[C@@H]3C)n1 [Compound 063, (R)-(1-(2,6-difluorophenyl)-8-methyl-3-(3-methyl-1,2,4-thiadiazol-5-yl)-5,6-dihydroimidazo[1,5-a]pyrazin-7 (8H)-yl)(4-fluorophenyl)methanone] | 47.6 nM |
| Cc1nsc(-c2nc(N(C)S(C)(=O)=O)c3n2CCN(C(=O)c2ccc(F)cc2)[C@@H]3C)n1 [Compound 064, (R)—N-(7-(4-fluorobenzoyl)-8-methyl-3-(3-methyl-1,2,4-thiadiazol-5-yl)-5,6,7,8-tetrahydroimidazo[1,5-a]pyrazin-1-yl)-N-methylmethanesulfonamide] | 80.1 nM |
| Cc1nsc(-c2nc(N3CCCCC3=O)c3n2CCN(C(=O)c2ccc(F)cc2)[C@@H]3C)n1 [Compound 069, (R)-1-(7-(4-fluorobenzoyl)-8-methyl-3-(3-methyl-1,2,4-thiadiazol-5-yl)-5,6,7,8-tetrahydroimidazo[1,5-a]pyrazin-1-yl)piperidin-2-one] | 7.43 nM |
| Cc1nsc(-c2nc(N3CCOCC3=O)c3n2CCN(C(=O)c2ccc(F)cc2)[C@@H]3C)n1 [Compound 072, (R)-4-(7-(4-fluorobenzoyl)-8-methyl-3-(3-methyl-1,2,4-thiadiazol-5-yl)-5,6,7,8-tetrahydroimidazo[1,5-a]pyrazin-1-yl)morpholin-3-one] | 16.8 nM |
| COc1cc(-c2nc(-c3nc(C)ns3)n3c2[C@@H](C)N(C(=O)c2ccc(F)cc2)CC3)ccn1 [Compound 080, (R)-(1-(2-methoxypyridin-4-yl)-8-methyl-3-(3-methyl-1,2,4-thiadiazol-5-yl)-5,6-dihydroimidazo[1,5-a]pyrazin-7 (8H)-yl)(4-fluorophenyl)methanone] | 84.5 nM |
| Cc1nsc(-c2nc(N3CCN(C)CC3=O)c3n2CCN(C(=O)c2ccc(F)cc2)[C@@H]3C)n1 [Compound 084] | 23.7 nM |
| COCC(=O)Nc1nc(-c2nc(C)ns2)n2c1[C@@H](C)N(C(=O)c1ccc(F)cc1)CC2 [Compound 089, (R)—N-(7-(4-fluorobenzoyl)-8-methyl-3-(3-methyl-1,2,4-thiadiazol-5-yl)-5,6,7,8-tetrahydroimidazo[1,5-a]pyrazin-1-yl)-2-methoxyacetamide] | 58.6 nM |
| Cc1nsc(-c2nc(N3CC=CC3=O)c3n2CCN(C(=O)c2ccc(F)cc2)[C@@H]3C)n1 [Compound 096, (R)-1-(7-(4-fluorobenzoyl)-8-methyl-3-(3-methyl-1,2,4-thiadiazol-5-yl)-5,6,7,8-tetrahydroimidazo[1,5-a]pyrazin-1-yl)-1,5-dihydro-2H-pyrrol-2-one] | 67.9 nM |
| Cc1nsc(-c2nc(N3Cc4ccccc4CC3=O)c3n2CCN(C(=O)c2ccc(F)cc2)[C@@H]3C)n1 [Compound 100, (R)-2-(7-(4-fluorobenzoyl)-8-methyl-3-(3-methyl-1,2,4-thiadiazol-5-yl)-5,6,7,8-tetrahydroimidazo[1,5-a]pyrazin-1-yl)-1,4-dihydroisoquinolin-3 (2H)-one] | 51.9 nM |
| Cc1nsc(-c2nc(N3CCOC3=O)c3n2CCN(C(=O)c2ccc(F)cc2)[C@@H]3C)n1 [Compound 101, (R)-3-(7-(4-fluorobenzoyl)-8-methyl-3-(3-methyl-1,2,4-thiadiazol-5-yl)-5,6,7,8-tetrahydroimidazo[1,5-a]pyrazin-1-yl)oxazolidin-2-one] | 20.2 nM |
| Cc1nsc(-c2nc(N3C[C@H](O)CC3=O)c3n2CCN(C(=O)c2ccc(F)cc2)[C@@H]3C)n1 [Compound 103, (R)-1-((R)-7-(4-fluorobenzoyl)-8-methyl-3-(3-methyl-1,2,4-thiadiazol-5-yl)-5,6,7,8-tetrahydroimidazo[1,5-a]pyrazin-1-yl)-4-hydroxypyrrolidin-2-one] | 5.7 nM |
